Where “and” joins values, the source holds several entries; their conditions need not be identical. Identical values can stand only once. Values belong to the compound of their own block, whether it stands above or below them.
How the values were obtained:
[1] = Pharmacokinetic study: plasma levels after single i.v. or p.o. dose; details: for half-life: t1/2β
Description: Female Wistar (155–165 g) rats were purchased from Charles River UK Ltd (Margate, Kent, UK) and housed in a dedicated animal facility. Rats received RM1 rodent maintenance diet (SDS, Kent, UK), water ad libitum and were maintained in positive pressure isolators under a 12 h light–dark cycle. These experiments were approved by the Imperial College Ethical Review Committee and met the standards required by the UKCCCR guidelines ([Workman et al, 1998]). […] Three rats were used for each time point. Rats were subjected to terminal anaesthesia (halothane) and blood was removed by cardiac puncture at 2.5, 5, 15, 30 and 45 min and 1, 3, 8, 16 and 24 h after i.v. administration. […] Plasma and RBCs were prepared from whole blood by centrifugation (2800 g, 4°C, 15 min). […] 7-Hydroxycoumarin (3 μg ml^−1) was used as an internal standard. The organic phase was decanted to a fresh tube and evaporated to dryness under a stream of air at room temperature. […] Briefly, RBCs were mixed with blank plasma (1 : 1, v v^−1) and mixed by inversion in order to reconstitute ‘whole blood’. 7-Hydroxycoumarin (3 μg ml^−1) was added to the whole blood (500 μl). […] Samples were thawed, vortexed for a further 5 min, centrifuged (15 000 g, 15 min) and the supernatant was removed and filtered ([…], acrodisc CR PTFE). The diethyl ether was removed under a stream of air. […] The residues were stored at −20°C in preparation for HPLC analysis.
Pharmacokinetic parameters were calculated using WinNonlin software (Pharsight Corporation, Mountview, CA, USA). The area under the curve (AUC) was calculated using the linear trapezoidal method with extrapolation of the terminal phase to infinity. Other parameters calculated were as follows: elimination rate constant (β); total body clearance (Cl)=dose/AUC; volume of distribution (Vd)=Cl/β; elimination half-life (t1/2β)=0.693/β; bioavailability (%F)=(AUCoral/AUCi.v.) × 100.

rat RBCs = experiment: Ex vivo uptake of 667 COUMATE / 667 COUMARIN by RBCs in whole blood; type: in vitro ADME
Description: (§1) Whole blood was removed from female Wistar rats, pooled, centrifuged (2800 g, 4°C, 15 min) and separated into RBCs and plasma. […] 667 COUMATE was also incubated with plasma only. Duplicate samples were maintained at 37°C for 0.5, 1, 3 and 24 h on rollers. Whole blood was acidified by addition of 1 M (pH 3) citrate buffer (9 : 1, v v^−1). […] Plasma was separated from other blood constituents by centrifugation (2800 g, 4°C, 15 min) and the radioactivity was counted.
(§2) The coefficients of variation (interday and intraday) were <10%.

[2] = In vivo uptake into RBCs after single p.o. or i.v. dose; details: female, Wistar, 10 mg kg^−1, rat
Description: Three rats were used for each time point.
as §2

[3] = Ex vivo stability in plasma and whole blood (667 COUMATE/667 COUMARIN ratio); type: in vitro ADME, rat
Description: as §1, with “Duplicate samples were maintained at 37°C for 0.5, 1, 3 and 24 h on rollers.” left out
as §2

[4] = Stability of 667 COUMATE in vehicle; type: physicochemical; details: HPLC
rat liver STS = details: cited from earlier work
[5] = design: method as in Ireson et al, 2003; details: by 4 h; ref Ireson et al, 2003; cited from earlier work
[6] = tested on: E1S-stimulated nitrosomethylurea-induced mammary tumours; details: cited from earlier work
STS = tested on: STS; design: method as in Ireson et al, 2003; details: ref Ireson et al, 2003; cited from earlier work
[7] = female, Wistar, rat, in vivo, iv, 10 mg/kg
[8] = female, Wistar, rat, in vivo, po, 10 mg/kg

Compound: NS(=O)(=O)Oc1ccc2c3c(c(=O)oc2c1)CCCCC3 [667 COUMATE, 6-oxo-8,9,10,11-tetrahydro-7H-cyclohepta-[c] [1] benzopyran-3-O-sulphamate]
- Cl ([1]; 10 mg kg^−1 bolus i.v., rat, Cl=dose/AUC): 53.5 ± 2.6 mL/h
- t1/2β ([1]; 10 mg kg^−1 p.o., rat plasma): 1.97 ± 0.3 h
- Cl ([1]; 10 mg kg^−1 p.o., rat, Cl=dose/AUC): 54 mL/h and 54.2 ± 2.4 mL/h
- Vd ([1]; 10 mg kg^−1 p.o., rat, Vd=Cl/β): 0.1532 ± 0.0187 L/kg
- concentration at 8 h ([1]; female, Wistar, rat, in vivo, 10 mg kg^−1): > 100 ng/mL
- bioavailability ([1]; female, Wistar, rat, in vivo, 10 mg kg^−1, %F (bioavailability), 10 mg kg^−1 p.o. vs i.v., rat, (AUCoral/AUCi.v.) × 100): 95%
- AUC [1, 7]: 35800 ± 1300 ng·h/mL
- Cmax [1, 7]: 22800 ± 600 ng/mL
- Vd [1, 7]: 0.0939 ± 0.0029 L/kg
- k el [1, 7]: 0.000167 s⁻¹
- clearance ([1]; female, Wistar, rat, in vivo, iv, 10 mg/kg, Cl, 10 mg kg^−1 bolus i.v., Cl=dose/AUC): 0.883 mL/min
- half-life ([1]; female, Wistar, rat, in vivo, iv, 10 mg/kg, 10 mg kg^−1 bolus i.v., rat plasma): 1.2 ± 0.1 h
- AUC [1, 8]: 34400 ± 1100 ng·h/mL
- Cmax [1, 8]: 11900 ± 400 ng/mL
- k el [1, 8]: 8.33e-05 s⁻¹
- half-life ([1]; female, Wistar, rat, in vivo, po, 10 mg/kg, 10 mg kg^−1 p.o., rat plasma): 2 h
- time at which maximum level in plasma was attained ([1]; oral dosing 10 mg kg^−1, rat): 30 min
- time for which 667 COUMATE could be detected in plasma ([1]; single 10 mg kg^−1 i.v. or p.o. dose, rat): up to 8 h
- percentage of agent retained by the RBCs (rat RBCs; 24 h after addition to whole rat blood): 48%
- percentage of agent taken up by RBCs (two independent analytical methods) (rat RBCs; added to rat whole blood ex vivo): more than 70%
- uptake into RBCs after preincubation with acetazolamide (rat RBCs; whole rat blood preincubated 30 min with acetazolamide (100 μM)): 50%
- percentage of agent associated with the RBC fraction (rat RBCs; whole rat blood, 30 min incubation, 37°C, 10 μg ml^−1, HPLC): more than 80%
- concentration at 30 min ([2]; iv, 30 min after i.v. administration): 19000 ng/mL
- concentration at 30 min ([2]; po, 30 min after p.o. administration): 12000 ng/mL
- parent compound remaining in plasma ([3]; plasma, 3 h incubation): below the limit of detection
- parent compound remaining in whole blood ([3]; whole blood, after 48 h incubation): could still be detected
- stability in vehicle ([4]; THF : PEG-400 : water 1:6:3, on ice for up to 6 h): stable
- inhibition of rat liver STS (rat liver STS; 10 mg kg^−1, ref Purohit et al, 2000, 2001): 93%
- duration of STS inhibition in vivo after a single dose (rat liver STS; rat, hepatic STS, ref Purohit et al, 2001): up to 24 h
- percentage of agent removed on incubation with plasma [5]: 80%
- inhibition of STS activity in mammary tumours ([6]; nitrosomethylurea-induced mammary tumours in rats, ref Purohit et al, 2000): almost completely inhibit STS activity
- growth of E1S-stimulated tumours ([6]; nitrosomethylurea-induced rat mammary model, ref Purohit et al, 2000, 2001): causes a reduction in the growth

- formation as metabolite of 667 COUMATE in vivo ([1]; rat plasma after i.v. or p.o. 667 COUMATE): only a minor metabolic product
- effect of acetazolamide preincubation on uptake into RBCs (rat RBCs; whole rat blood preincubated with acetazolamide (100 μM)): did not affect this uptake
- uptake into RBCs (rat RBCs; whole rat blood, 667 COUMARIN 10 μg ml^−1, no acetazolamide): 50%
- level of degradation product 667 COUMARIN in vehicle ([4]; 667 COUMATE in vehicle on ice for up to 6 h): below the limit of detection
Compound: O=c1oc2cc(O)ccc2c2c1CCCCC2 [667 COUMARIN, 3-Hydroxy-6-oxo-8,9,10,11-tetrahydro-7H-cyclohepta-[c] [1] benzopyran]
- STS inhibitory activity (STS): devoid of any STS inhibitory activity
